How the values were obtained:
oilseed rape = experiment: Test C preemergence; assay type: in vivo, Brassica napus; settings: for Oilseed Rape plant response rating: preemergence
Outline: (§1)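 Sown in loam/sand → sprayed pre-emergence; or grown to 1–4 leaves in peat mix → sprayed post-emergence. Same solvent/surfactant formulation both ways. Greenhouse 13–15 d. Score 0–100 visual.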

corn = experiment: Test C preemergence; assay type: in vivo, Zea mays; settings: for Corn plant response rating: preemergence
Outline: as §1

yellow nutsedge = experiment: Test C preemergence; assay type: in vivo, Cyperus esculentus; settings: for Nutsedge, Yellow plant response rating: preemergence
Outline: as §1

blackgrass = experiment: Test C preemergence; assay type: in vivo, Alopecurus myosuroides; settings: for Blackgrass plant response rating: preemergence
Outline: as §1

Italian ryegrass [1] = experiment: Test A postemergence; assay type: in vivo, Lolium multiflorum; settings: 0 to 100 scale, 0 no effect, 100 complete control
Outline: (§2)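 Visual 0–100 rating (100 = complete control) taken about 10 d post-treatment relative to untreated checks. Preemergence: directed soil spray on sown loam/sand pots. Postemergence: seedlings 2–10 cm, 1–2 leaf. Non-phytotoxic solvent formulation with surfactant.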

velvetleaf = experiment: Test C preemergence; assay type: in vivo, Abutilon theophrasti; settings: for Velvetleaf plant response rating: preemergence
Outline: as §1

ragweed [2] = experiment: Test C preemergence; assay type: in vivo, Ambrosia elatior; settings: for Ragweed plant response rating: preemergence
Outline: as §1

morningglory = experiment: Test C preemergence; assay type: in vivo, Ipomoea coccinea; settings: for Morningglory plant response rating: preemergence
Outline: as §1

large (Lg) crabgrass = experiment: Test C preemergence; assay type: in vivo, Digitaria sanguinalis; settings: for Crabgrass, Large plant response rating: preemergence
Outline: as §1

galium = experiment: Test A postemergence; assay type: in vivo, Galium aparine; settings: 0 to 100 scale, 0 no effect, 100 complete control
Outline: as §2

ragweed [3] = experiment: Test A preemergence; assay type: in vivo, Ambrosia elatior
Outline: as §2

ragweed [4] = experiment: Test A postemergence; assay type: in vivo, Ambrosia elatior; settings: 0 to 100 scale, 0 no effect, 100 complete control
Outline: as §2

lambsquarters = experiment: Test C preemergence; assay type: in vivo, Chenopodium album; settings: for Lambsquarters plant response rating: preemergence
Outline: as §1

pigweed = experiment: Test C preemergence; assay type: in vivo, Amaranthus retroflexus; settings: for Pigweed plant response rating: preemergence
Outline: as §1

Italian ryegrass [5] = experiment: Test C preemergence; assay type: in vivo, Lolium multiflorum; settings: for Ryegrass, Italian plant response rating: preemergence
Outline: as §1

giant foxtail = experiment: Test C preemergence; assay type: in vivo, Setaria faberii; settings: for Foxtail, Giant plant response rating: preemergence
Outline: as §1

soybean = experiment: Test C preemergence; assay type: in vivo, Glycine max; settings: for Soybean plant response rating: preemergence
Outline: as §1

barnyardgrass = experiment: Test C preemergence; assay type: in vivo, Echinochloa crus-galli; settings: for Barnyardgrass plant response rating: preemergence
Outline: as §1

[6] = 16 g ai/ha, scale 0 to 100 (0 no effect, 100 complete control)
[7] = 125 g ai/ha, scale 0 (no effect) to 100 (complete control)
[8] = Preemergence, 62 g ai/ha, scale 0 to 100, 0 no effect, 100 complete control

## FC(F)Oc1cnn(-c2c(Cl)cccc2Oc2ncc(Cl)cn2)c1 [Compound 258]
Oilseed rape; [6]
  Oilseed Rape plant response rating: 80
Oilseed rape; [7]
  Oilseed Rape plant response rating: 100
Oilseed rape; [8]
  Plant response rating, Oilseed Rape: 100
corn; [6]
  Corn plant response rating: 0
corn; [7]
  Corn plant response rating: 65
corn; [8]
  Plant response rating, Corn: 45
Yellow nutsedge; [6]
  Nutsedge, Yellow plant response rating: 5
Yellow nutsedge; [7]
  Nutsedge, Yellow plant response rating: 100
Yellow nutsedge; [8]
  Plant response rating, Nutsedge, Yellow: 95
blackgrass; [6]
  Blackgrass plant response rating: 0
blackgrass; [7]
  Blackgrass plant response rating: 90
blackgrass; [8]
  Plant response rating, Blackgrass: 90
Italian ryegrass [1]; 31 g ai/ha
  Plant response rating, Ryegrass, Italian: 0
Italian ryegrass [1]; 125 g ai/ha
  Plant response rating, Ryegrass, Italian: 20
velvetleaf; [6]
  Velvetleaf plant response rating: 80
velvetleaf; [7]
  Velvetleaf plant response rating: 100
velvetleaf; [8]
  Plant response rating, Velvetleaf: 100
Ragweed [2]; [6]
  Ragweed plant response rating: 0
Ragweed [2]; [7]
  Ragweed plant response rating: 90
Ragweed [2]; [8]
  Plant response rating, Ragweed: 80
morningglory; [6]
  Morningglory plant response rating: 10
morningglory; [7]
  Morningglory plant response rating: 98
morningglory; [8]
  Plant response rating, Morningglory: 45
Large (Lg) crabgrass; [6]
  Crabgrass, Large plant response rating: 100
Large (Lg) crabgrass; [7]
  Crabgrass, Large plant response rating: 100
Large (Lg) crabgrass; [8]
  Plant response rating, Crabgrass, Large: 100
galium; 31 g ai/ha
  Plant response rating, Galium: 70
galium; 125 g ai/ha
  Plant response rating, Galium: 90
Ragweed [3]; 31 g ai/ha, 0 to 100 scale where 0 is no effect and 100 is complete control, visual, approximately 10 days
  Plant response rating, Ragweed: 0
Ragweed [3]; 125 g ai/ha
  Ragweed plant response rating (0 to 100 scale): 40
Ragweed [4]; 31 g ai/ha
  Plant response rating, Ragweed: 10
Ragweed [4]; 125 g ai/ha
  Plant response rating, Ragweed: 50
lambsquarters; [6]
  Lambsquarters plant response rating: 65
lambsquarters; [7]
  Lambsquarters plant response rating: 98
lambsquarters; [8]
  Plant response rating, Lambsquarters: 98
pigweed; [6]
  Pigweed plant response rating: 100
pigweed; [7]
  Pigweed plant response rating: 100
pigweed; [8]
  Plant response rating, Pigweed: 100
Italian ryegrass [5]; [6]
  Ryegrass, Italian plant response rating: 0
Italian ryegrass [5]; [7]
  Ryegrass, Italian plant response rating: 70
Italian ryegrass [5]; [8]
  Plant response rating, Ryegrass, Italian: 25
Giant foxtail; [6]
  Foxtail, Giant plant response rating: 75
Giant foxtail; [7]
  Foxtail, Giant plant response rating: 100
Giant foxtail; [8]
  Plant response rating, Foxtail, Giant: 100
soybean; [6]
  Soybean plant response rating: 35
soybean; [7]
  Soybean plant response rating: 95
soybean; [8]
  Plant response rating, Soybean: 75
barnyardgrass; [6]
  Barnyardgrass plant response rating: 45
barnyardgrass; [7]
  Barnyardgrass plant response rating: 100
barnyardgrass; [8]
  Plant response rating, Barnyardgrass: 90

Source: patent publication US9695155B2, “Herbicidal substituted pyrimidinyloxy benzene compounds” (E. I. DU PONT DE NEMOURS AND COMPANY, priority 2013, dated 2017)
